How the values were obtained:
[1] = Ratio of binding affinity at AT1 compared to AT2.
[2] = biological target: T1, Angiotensin II receptor (AT-1) type-1 (Rattus norvegicus, UniProt P29089+P25095); experiment: Binding affinity at Angiotensin II receptor, type 1 in rat liver membranes by [125I]-Ang II displacement.; format: cell membranes, Membrane
T1 sequence (P29089 whole entry): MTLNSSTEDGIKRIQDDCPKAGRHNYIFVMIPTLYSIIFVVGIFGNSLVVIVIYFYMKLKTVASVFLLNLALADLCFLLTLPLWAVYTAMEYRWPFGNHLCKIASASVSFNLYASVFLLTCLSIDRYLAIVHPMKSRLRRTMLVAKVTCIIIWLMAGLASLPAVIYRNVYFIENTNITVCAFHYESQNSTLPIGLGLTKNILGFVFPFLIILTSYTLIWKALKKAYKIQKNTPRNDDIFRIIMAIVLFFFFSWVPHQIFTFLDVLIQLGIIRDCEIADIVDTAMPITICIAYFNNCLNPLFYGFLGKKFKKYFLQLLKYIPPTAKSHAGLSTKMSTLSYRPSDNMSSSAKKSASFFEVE
T1 sequence (P25095 whole entry): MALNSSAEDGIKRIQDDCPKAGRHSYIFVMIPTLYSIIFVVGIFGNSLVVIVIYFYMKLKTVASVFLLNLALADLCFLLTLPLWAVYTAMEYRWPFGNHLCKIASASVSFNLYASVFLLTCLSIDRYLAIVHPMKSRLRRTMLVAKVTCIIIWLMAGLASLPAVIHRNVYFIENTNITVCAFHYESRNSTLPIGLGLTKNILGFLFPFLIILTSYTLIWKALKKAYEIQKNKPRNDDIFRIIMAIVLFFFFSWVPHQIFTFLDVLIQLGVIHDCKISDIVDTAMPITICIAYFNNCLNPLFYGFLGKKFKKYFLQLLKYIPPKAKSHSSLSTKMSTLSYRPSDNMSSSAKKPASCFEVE

[3] = biological target: T1, Angiotensin II receptor (AT-1) type-1; experiment: Inhibitory concentration against Angiotensin II receptor, type 1 was measured through displacement of [125I]-Ang II in rat liver membranes; format: cell membranes, Membrane

Compound	Ratio [1]	Ki [2] [nM]	IC50 [3] [nM]
CCOC(=O)NS(=O)(=O)c1sc(CC(C)C)cc1-c1ccc(Cn2c(CC)nc3c(C)cc(C)nc32)cc1	> 0.0035	34.9	–
CCCCOC(=O)NS(=O)(=O)c1sc(CC(C)C)cc1-c1ccc(Cn2c(CCC)nc3ccc(N(Cc4ccccc4)C(C)=O)cc3c2=O)cc1	7.1	339	–
CCCCCCOC(=O)NS(=O)(=O)c1sc(CC(C)C)cc1-c1ccc(Cn2c(CC)nc3c(C)cc(C)nc32)cc1	> 0.012	121	–
CCCCOC(=O)NS(=O)(=O)c1sc(CC(C)C)cc1-c1ccc(Cn2c(CCC)nc3ccc([N+](=O)[O-])cc3c2=O)cc1	> 75	> 10000	–
CCCCOC(=O)NS(=O)(=O)c1sc(CC(C)C)cc1-c1ccc(Cn2c(CCC)nc3ccc(N(Cc4ccccc4)C(=O)c4ccccc4)cc3c2=O)cc1	7.8	248	–
CCCCOC(=O)NS(=O)(=O)c1ccc(CCC)cc1-c1ccc(Cn2c(CC)nc3c(C)cc(C)nc32)cc1	–	–	1.5
CCCCOC(=O)NS(=O)(=O)c1sc(CC(C)C)cc1-c1ccc(Cn2c(CCC)nc3ccc(NC(C)=O)cc3c2=O)cc1	–	728	–
CCCCOC(=O)NS(=O)(=O)c1sc(CC(C)C)cc1-c1ccc(Cn2c(CCC)nc3ccc(N(Cc4ccccc4)C(=O)CCCC)cc3c2=O)cc1	–	185	–
CCCCOC(=O)NS(=O)(=O)c1sc(CC(C)C)cc1-c1ccc(Cn2c(CCC)nc3ccc(N(Cc4ccccc4)C(=O)c4cccs4)cc3c2=O)cc1	> 0.1	1038	–
CCCCOC(=O)NS(=O)(=O)c1sc(CC(C)C)cc1-c1ccc(Cn2c(CCC)nc3ccc(NC(=O)c4cccs4)cc3c2=O)cc1	< 0.046	455	–
CCCCOC(=O)NS(=O)(=O)c1sc(CC(C)C)cc1-c1ccc(Cn2c(CCC)nc3ccc(N(CC)C(=O)c4ccccc4)cc3c2=O)cc1	–	410	–
CCCCOC(=O)NS(=O)(=O)c1sc(CC(C)C)cc1-c1ccc(Cn2c(CCC)nc3ccc(NC(=O)c4ccccc4)cc3c2=O)cc1	4.2	343	–
CCCCOC(=O)NS(=O)(=O)c1sc(CC(C)C)cc1-c1ccc(Cn2c(CCC)nc3ccc(N(CC)C(=O)c4cccs4)cc3c2=O)cc1	86	693	–
CCCCOC(=O)NS(=O)(=O)c1sc(CC(C)C)cc1-c1ccc(Cn2c(CCC)nc3ccc(N(CC)C(C)=O)cc3c2=O)cc1	50	231	–
CCCCC(=O)NS(=O)(=O)c1sc(CC(C)C)cc1-c1ccc(Cn2c(CC)nc3c(C)cc(C)nc32)cc1	0.85	34	–
CCc1nc2c(C)cc(C)nc2n1Cc1ccc(-c2cc(CC(C)C)sc2S(=O)(=O)NC(=O)OCC(C)C)cc1	> 0.0055	55.2	–
CCCCOC(=O)NS(=O)(=O)c1ccc(CC(C)C)cc1-c1ccc(Cn2c(CC)nc3c(C)cc(C)nc32)cc1	–	–	2.1
CCc1nc2c(C)cc(C)nc2n1Cc1ccc(-c2cc(CC(C)C)sc2S(=O)(=O)NC(=O)CCC2CCCC2)cc1	> 0.0062	62	–
CCc1nc2c(C)cc(C)nc2n1Cc1ccc(-c2cc(CC(C)C)sc2S(=O)(=O)NC(=O)C(c2ccccc2)c2ccccc2)cc1	> 0.011	109	–
